Test results published in patent publication US20260137815A1, “DIAGNOSTIC AND TREATMENT METHODS FOR ONYCHOMYCOSIS” (ToeFX Inc., priority 2022, published 2026).

System: T. rubrum strain F4520
Test: UV-Visual absorption spectra of MB incubated with T. rubrum
Experimental: Referring to FIG. 5C, shown therein are UV-Visual absorption spectra of MB when incubated with T. rubrum. T. rubrum strain F4520 cubes were retrieved from −80° freezer, thawed at room temperature, and transferred to an Sabourand dextrose agar (SDA) plate, and distributed evenly on the SDA plate. The SDA plate was sealed by parafilm and moved into a 30° C. incubator until vigorous fungal growth was observed. Next, fungal mycelia were prepared, by transferring a 6.25 cm^2 culture from the SDA plate to a sterile blender cup and adding 200 mL sterile water. After 30 seconds of blending, varying amounts of blendate was pipetted into wells of a 96 well plate. […] The MB absorbance spectra was then measured by a photospectrometer.
The more dilute the fungus, the higher the MB absorbance value (i.e., normalized absorbance), indicating higher amounts of free MB in the solution.
A similar protocol was followed as described above for FIG. 5C, except that the concentration of T. rubrum in the solution was kept constant. MB absorbance was measured immediately (curve 502), 4 days (curve 504), and 7 days (curve 506) after mixing. Immediately after mixing, the MB absorbance peak is centered at ˜660 nm, corresponding to the absorption peak of MB alone in solution (see FIG. 5A). Over time, the intensity of the absorbance peak is lowered as MB is adsorbed to fungal cells, consistent with the curves in FIG. 5C.

CN(C)c1ccc2nc3ccc(=[N+](C)C)cc-3sc2c1 [MB, Methylene Blue]
MB absorbance (normalized) with increasing fungal concentration (0.01% v/v solution of MB, varying concentrations of T. rubrum): lower MB absorbance is observed
shift of MB absorbance peak over time (0.25% v/v solution of MB with T. rubrum culture, immediately, 4 days, 7 days after mixing): observable blue-shifting of the MB absorbance peak over time
